# Measured values from patent US7297700B2, “Bicycloheteroaryl compounds as P2X7 modulators and uses thereof” (Renovis, Inc., priority 2005, dated 2007).
# System: IL-1β release from THP-1 cells
# Test: IL-1β Release Assay (Alternate Method), THP-1 cells
# Assay type: cell-based, human
# Settings: Homo sapiens; at 0.3 μM; THP-1 cells, BzATP-stimulated; read-out: IL-1β % inhibition
# Method in brief: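 IL-1β release, measured by ELISA, follows 45 min BzATP (250 uM final) stimulation of THP-1 cells given 30 min compound pretreatment. Cells were first primed 16 h with LPS and IFN-γ (100 ng/mL each), then 2 h with fresh LPS; inhibition expressed in percent after background correction.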
row,Structure (SMILES),inhibition at 0.3 µM [%]
1,O=C(CC12CC3CC(CC(C3)C1)C2)Nc1cccc2c1C=CN(Cc1ccc(F)cc1)C2 [Compound 636],0 to 25

# Same assay, conditions: at 0.3 μM; THP-1 cells, BzATP-stimulated
row,Structure (SMILES),IL-1β % inhibition
1,O=C(Nc1ncnc2c1CCN(Cc1ccc(Cl)cc1Cl)C2)C12CC3CC(CC(C3)C1)C2 [Compound 570],++ (compound exhibited 25-50% inhibition at 0.3 μM)
2,N#Cc1cccc(CN2CCc3c(ncnc3NC(=O)C34CC5CC(CC(C5)C3)C4)C2)c1 [Compound 571],++++ (compound exhibited 75% or greater inhibition at 0.3 μM)
3,CC(C)(C)c1ccc(CN2CCc3c(ncnc3NC(=O)C34CC5CC(CC(C5)C3)C4)C2)cc1 [Compound 572],++++ (compound exhibited 75% or greater inhibition at 0.3 μM)
4,O=C(Nc1ncnc2c1CCN(Cc1ccc(Oc3ccccc3)cc1)C2)C12CC3CC(CC(C3)C1)C2 [Compound 576],+++ (compound exhibited 50-75% inhibition at 0.3 μM)
5,CC(C)CCN1CCc2c(ncnc2NC(=O)C23CC4CC(CC(C4)C2)C3)C1 [Compound 583],+ (compound exhibited 0-25% inhibition at 0.3 μM)
6,COc1cccc(CN2CCc3c(ncnc3NC(=O)C34CC5CC(CC(C5)C3)C4)C2)c1 [Compound 584],+ (compound exhibited 0-25% inhibition at 0.3 μM)
7,Cc1ccc(CN2CCc3c(ncnc3NC(=O)C34CC5CC(CC(C5)C3)C4)C2)cc1C [Compound 585],++ (compound exhibited 25-50% inhibition at 0.3 μM)
8,COc1cc(CN2CCc3c(ncnc3NC(=O)C34CC5CC(CC(C5)C3)C4)C2)ccc1OCc1ccccc1 [Compound 588],++ (compound exhibited 25-50% inhibition at 0.3 μM)
9,O=C(Nc1ncnc2c1CCN(Cc1ccc3c(c1)OCCO3)C2)C12CC3CC(CC(C3)C1)C2 [Compound 589],+++ (compound exhibited 50-75% inhibition at 0.3 μM)
10,O=C(Nc1ncnc2c1CCN(Cc1ccc(Cl)c(Cl)c1)C2)C12CC3CC(CC(C3)C1)C2 [Compound 590],+ (compound exhibited 0-25% inhibition at 0.3 μM)
11,COc1ccc(CN2CCc3c(ncnc3NC(=O)C34CC5CC(CC(C5)C3)C4)C2)cc1OCc1ccccc1 [Compound 592],++++ (compound exhibited 75% or greater inhibition at 0.3 μM)
12,COc1ccc(CN2CCc3c(ncnc3NC(=O)C34CC5CC(CC(C5)C3)C4)C2)cc1O [Compound 593],+ (compound exhibited 0-25% inhibition at 0.3 μM)
13,COc1cc(CN2CCc3c(ncnc3NC(=O)C34CC5CC(CC(C5)C3)C4)C2)cc(Br)c1OC [Compound 594],+ (compound exhibited 0-25% inhibition at 0.3 μM)
14,N#Cc1cc(CN2CCc3c(ncnc3NC(=O)C34CC5CC(CC(C5)C3)C4)C2)ccc1F [Compound 595],+ (compound exhibited 0-25% inhibition at 0.3 μM)
15,O=C(Nc1ncnc2c1CCN(Cc1cccc3c1OCO3)C2)C12CC3CC(CC(C3)C1)C2 [Compound 596],+++ (compound exhibited 50-75% inhibition at 0.3 μM)
16,O=C(Nc1ncnc2c1CCN(Cc1ccc(Br)cc1)C2)C12CC3CC(CC(C3)C1)C2 [Compound 597],+++ (compound exhibited 50-75% inhibition at 0.3 μM)
17,O=C(Nc1ncnc2c1CCN(Cc1cccc(Cl)c1)C2)C12CC3CC(CC(C3)C1)C2 [Compound 598],+ (compound exhibited 0-25% inhibition at 0.3 μM)
18,O=C(Nc1ncnc2c1CCN(Cc1cc3c(cc1Cl)OCO3)C2)C12CC3CC(CC(C3)C1)C2 [Compound 599],+ (compound exhibited 0-25% inhibition at 0.3 μM)
19,O=C(Nc1ncnc2c1CCN(Cc1ccc(Cl)cc1)C2)C12CC3CC(CC(C3)C1)C2 [Compound 601],+++ (compound exhibited 50-75% inhibition at 0.3 μM)
20,Cc1ccc(CN2CCc3c(ncnc3NC(=O)C34CC5CC(CC(C5)C3)C4)C2)cc1 [Compound 602],++ (compound exhibited 25-50% inhibition at 0.3 μM)
21,N#Cc1ccc(CN2CCc3c(ncnc3NC(=O)C34CC5CC(CC(C5)C3)C4)C2)cc1 [Compound 603],+ (compound exhibited 0-25% inhibition at 0.3 μM)
22,O=C(Nc1ncnc2c1CCN(Cc1ccc(C(F)(F)F)cc1)C2)C12CC3CC(CC(C3)C1)C2 [Compound 604],++++ (compound exhibited 75% or greater inhibition at 0.3 μM)
23,O=C(Nc1ncnc2c1CCN(Cc1cccc(F)c1)C2)C12CC3CC(CC(C3)C1)C2 [Compound 605],+ (compound exhibited 0-25% inhibition at 0.3 μM)
24,Cc1cccc(CN2CCc3c(ncnc3NC(=O)C34CC5CC(CC(C5)C3)C4)C2)c1 [Compound 606],+ (compound exhibited 0-25% inhibition at 0.3 μM)
25,O=C(Nc1ncnc2c1CCN(Cc1ccc(F)cc1)C2)C12CC3CC(CC(C3)C1)C2 [Compound 607],++++ (compound exhibited 75% or greater inhibition at 0.3 μM)

row,Structure (SMILES),IL-1β % inhibition
1,COc1ccc(CN2CCc3c(ncnc3NC(=O)C34CC5CC(CC(C5)C3)C4)C2)c(OC)c1 [Compound 608],+ (compound exhibited 0-25% inhibition at 0.3 μM)
2,O=C(Nc1ncnc2c1CCN(Cc1ccncc1)C2)C12CC3CC(CC(C3)C1)C2 [Compound 610],+ (compound exhibited 0-25% inhibition at 0.3 μM)
3,O=C(Nc1ncnc2c1CCN(Cc1ccc(Cl)c(F)c1)C2)C12CC3CC(CC(C3)C1)C2 [Compound 611],+++ (compound exhibited 50-75% inhibition at 0.3 μM)
4,O=C(Nc1ncnc2c1CCN(Cc1ccc(C(F)(F)F)cc1F)C2)C12CC3CC(CC(C3)C1)C2 [Compound 612],++++ (compound exhibited 75% or greater inhibition at 0.3 μM)
5,O=C(Nc1ncnc2c1CCN(Cc1ccc(Br)nc1)C2)C12CC3CC(CC(C3)C1)C2 [Compound 613],+ (compound exhibited 0-25% inhibition at 0.3 μM)
6,O=C(Nc1ncnc2c1CCN(Cc1cccc(Br)c1)C2)C12CC3CC(CC(C3)C1)C2 [Compound 614],+ (compound exhibited 0-25% inhibition at 0.3 μM)
7,COc1ccccc1CN1CCc2c(ncnc2NC(=O)C23CC4CC(CC(C4)C2)C3)C1 [Compound 615],+++ (compound exhibited 50-75% inhibition at 0.3 μM)
8,O=C(Nc1ncnc2c1CCN(Cc1cc(Br)ccc1F)C2)C12CC3CC(CC(C3)C1)C2 [Compound 618],+ (compound exhibited 0-25% inhibition at 0.3 μM)
9,O=C(Nc1ncnc2c1CCN(CC1CCCC1)C2)C12CC3CC(CC(C3)C1)C2 [Compound 619],+ (compound exhibited 0-25% inhibition at 0.3 μM)
10,O=C(Nc1ncnc2c1CCN(Cc1ccc(OC(F)(F)F)cc1)C2)C12CC3CC(CC(C3)C1)C2 [Compound 620],++ (compound exhibited 25-50% inhibition at 0.3 μM)
11,O=C(Nc1ncnc2c1CCN(Cc1ccc(OC(F)F)cc1)C2)C12CC3CC(CC(C3)C1)C2 [Compound 621],+++ (compound exhibited 50-75% inhibition at 0.3 μM)
12,O=C(Nc1ncnc2c1CCN(Cc1ccc(OCc3ccc(F)cc3)cc1)C2)C12CC3CC(CC(C3)C1)C2 [Compound 622],++ (compound exhibited 25-50% inhibition at 0.3 μM)
13,COc1cc(F)c(CN2CCc3c(ncnc3NC(=O)C34CC5CC(CC(C5)C3)C4)C2)cc1OC [Compound 623],+ (compound exhibited 0-25% inhibition at 0.3 μM)
14,COc1cc(F)c(CN2CCc3c(ncnc3NC(=O)C34CC5CC(CC(C5)C3)C4)C2)c(F)c1 [Compound 624],+ (compound exhibited 0-25% inhibition at 0.3 μM)
15,CCOc1cccc(CN2CCc3c(ncnc3NC(=O)C34CC5CC(CC(C5)C3)C4)C2)c1 [Compound 625],+ (compound exhibited 0-25% inhibition at 0.3 μM)
16,O=C(Nc1ncnc2c1CCN(Cc1cccc(Oc3cccc(C(F)(F)F)c3)c1)C2)C12CC3CC(CC(C3)C1)C2 [Compound 626],++ (compound exhibited 25-50% inhibition at 0.3 μM)
17,O=C(Nc1ncnc2c1CCN(Cc1ccc3c(c1)OC(F)(F)O3)C2)C12CC3CC(CC(C3)C1)C2 [Compound 627],++++ (compound exhibited 75% or greater inhibition at 0.3 μM)
18,COc1ccc(F)c(CN2CCc3c(ncnc3NC(=O)C34CC5CC(CC(C5)C3)C4)C2)c1 [Compound 628],+ (compound exhibited 0-25% inhibition at 0.3 μM)
19,COc1cc(CN2CCc3c(ncnc3NC(=O)C34CC5CC(CC(C5)C3)C4)C2)ccc1F [Compound 629],+ (compound exhibited 0-25% inhibition at 0.3 μM)
20,CCOc1ccc(CN2CCc3c(ncnc3NC(=O)C34CC5CC(CC(C5)C3)C4)C2)cc1 [Compound 630],++++ (compound exhibited 75% or greater inhibition at 0.3 μM)
21,COc1ccc(OC)c(CN2CCc3c(ncnc3NC(=O)C34CC5CC(CC(C5)C3)C4)C2)c1 [Compound 631],+ (compound exhibited 0-25% inhibition at 0.3 μM)
22,O=C(Nc1ncnc2c1CCN(Cc1cccc(OC(F)(F)F)c1)C2)C12CC3CC(CC(C3)C1)C2 [Compound 632],++ (compound exhibited 25-50% inhibition at 0.3 μM)
23,COc1cc(CN2CCc3c(ncnc3NC(=O)C34CC5CC(CC(C5)C3)C4)C2)cc(OC)c1 [Compound 633],+ (compound exhibited 0-25% inhibition at 0.3 μM)
24,O=C(Nc1ncnc2c1CCN(Cc1ccc(Cl)nc1)C2)C12CC3CC(CC(C3)C1)C2 [Compound 634],+ (compound exhibited 0-25% inhibition at 0.3 μM)
25,O=C(Nc1ncnc2c1CCN(Cc1ccc(Cl)cc1F)C2)C12CC3CC(CC(C3)C1)C2 [Compound 635],+ (compound exhibited 0-25% inhibition at 0.3 μM)
